Assay results reported in US9637469B2, “Pyridine derivative” (Teijin Pharma Limited, priority 2012, dated 2017).

The compounds below were run against T1, human URAT1 (Homo sapiens, UniProt Q96S37) (assay: Test for inhibition of uric acid transport using human URAT1-expressing cells). Settings: HEK 293 cells expressing human URAT1; 14C-labeled uric acid 25 μM; uptake 37° C. for 5 min.
T1 construct: Full-length cDNA of human URAT1 (hURAT1)
T1 sequence (Q96S37 1-553): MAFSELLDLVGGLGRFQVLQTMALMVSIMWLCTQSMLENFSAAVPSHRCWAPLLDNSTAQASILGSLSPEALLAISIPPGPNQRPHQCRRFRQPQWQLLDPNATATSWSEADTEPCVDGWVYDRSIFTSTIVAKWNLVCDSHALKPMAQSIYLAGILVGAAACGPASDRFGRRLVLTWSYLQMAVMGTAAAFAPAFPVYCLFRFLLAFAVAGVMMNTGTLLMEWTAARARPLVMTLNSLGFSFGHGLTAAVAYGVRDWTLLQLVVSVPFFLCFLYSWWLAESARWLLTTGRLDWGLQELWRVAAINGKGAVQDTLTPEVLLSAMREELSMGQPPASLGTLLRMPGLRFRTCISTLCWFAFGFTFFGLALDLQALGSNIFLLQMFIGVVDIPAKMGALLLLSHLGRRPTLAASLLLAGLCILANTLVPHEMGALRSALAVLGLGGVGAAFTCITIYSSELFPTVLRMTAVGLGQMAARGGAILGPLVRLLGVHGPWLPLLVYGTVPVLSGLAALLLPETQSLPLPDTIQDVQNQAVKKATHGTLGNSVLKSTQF
Type: cell-based
Procedure: (1) Preparation of the Test Compound
The test compound was dissolved in DMSO (produced by Sigma) to a concentration of 20 mM and was subsequently used by diluting to desired concentrations.
(2) Test for Inhibition of Uric Acid Transport Using Human URAT1-Expressing Cells;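 note: three stars up to 0.2 µM two stars 0.2-2 µM one star 2-20 µM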
Full-length cDNA of human URAT1 (hURAT1) (produced by OriGene Technologies, Inc., NCBI Reference Sequence: NM 144585) was subcloned into an expression vector, pCMV6-Kan/Neo (produced by OriGene Technologies, Inc.), and hURAT1 gene was transfected into human embryonic kidney-derived cells (HEK 293 cells) by liposome method using Lipofectamine 2000 (produced by Invitrogen Corporation), whereupon HEK 293 cells expressing human URAT1 gene were screened by its Geneticin resistance. By a method similar to the following method, functional expression of human URAT1 gene was confirmed by using transport of ^14C-labeled uric acid into the cells as an index.
The HEK 293 cells expressing human URAT1 were seeded in a 24-well cell culture dish to a density of 3×10^5 cells/mL/well and were cultured in Dulbecco's modified Eagle's medium (D-MEM medium) containing 10% fetal bovine serum at 37° C. for 2 days. Thereafter, the following test for inhibition of uric acid transport was performed.
After the medium was removed by aspiration from each well, the medium was replaced with a solution obtained by substituting NaCl in Hank's Balanced Salt Solution (HBSS) with Na gluconate (hereinafter, HBSS/Na-gluconate) and the cells were preincubated at 37° C. for about 10 minutes. HBSS/Na-gluconate was removed by aspiration and a ^14C-uric acid solution that was warmed at 37° C. in advance containing various concentrations of the Example compound described in (1) and a radioactive ligand (^14C-labeled uric acid; final concentration 25 μM) was added and an uptake reaction was carried out by incubating at 37° C. for 5 min. After the incubation, ^14C-labeled uric acid solution was removed by aspiration and the cells were washed three times with ice-cold HBSS. The HEK 293 cells expressing human URAT1 were lysed in 0.2 mol/L aqueous NaOH (hereafter, the cell sample) and the cell samples were collected. The cell sample and a liquid scintillation liquid, ULTIMA GOLD (produced by PerkinElmer, Inc.) were mixed and the radioactivity was measured by a liquid scintillation counter (Beckman Coulter, Inc.).
The uric acid transport rate of the Example compound at each concentration (% of control uptake) was calculated relative to the radioactivity (radioactivity in human URAT1 expressing HEK 293 cells without addition of the Example compound (DMSO addition)) showing URAT1-specific uric acid transport as 100%, and the concentration (IC50) of the Example compound at which the uric acid transport rate is inhibited by 50% was determined. In addition, the symbols (*, **, and ***) in the table represent the following inhibitory activity values: • IC50≦_ 0.2 μM: *** • 0.2 μM<IC50≦2 μM: ** • 2 μM<IC50≦20 μM: *

Inhibitory Activity (IC50 of uric acid transport inhibition), * *:
Cc1nc(-c2cccnc2)n(Cc2cc(F)ccc2Cl)c1C(=O)O [Compound A41, 1-(2-chloro-5-fluorobenzyl)-4-methyl-2-(pyridin-3-yl)-1H-imidazole-5-carboxylic acid]
Cc1nc(-c2cccnc2)n(Cc2cc(Cl)ccc2F)c1C(=O)O [Compound A42, 1-(5-chloro-2-fluorobenzyl)-4-methyl-2-(pyridin-3-yl)-1H-imidazole-5-carboxylic acid]
Cc1nc(-c2cccnc2)n(Cc2cc(Cl)ccc2C(F)(F)F)c1C(=O)O [Compound A44, 1-(5-chloro-2-(trifluoromethyl)benzyl)-4-methyl-2-(pyridin-3-yl)-1H-imidazole-5-carboxylic acid]
Cc1nc(-c2cccnc2)n(Cc2cc(C(F)(F)F)ccc2C(F)(F)F)c1C(=O)O [Compound A46, 1-(2,5-bis(trifluoromethyl)benzyl)-4-methyl-2-(pyridin-3-yl)-1H-imidazole-5-carboxylic acid]
Cc1nc(-c2cccnc2)n(Cc2ccccc2Br)c1C(=O)O [Compound A54, 1-(2-bromobenzyl)-4-methyl-2-(pyridin-3-yl)-1H-imidazole-5-carboxylic acid]
Cc1nc(-c2cccnc2)n(Cc2cccc(Br)c2)c1C(=O)O [Compound A55, 1-(3-bromobenzyl)-4-methyl-2-(pyridin-3-yl)-1H-imidazole-5-carboxylic acid]
Cc1nc(-c2cnc3ccccc3c2)n(Cc2cc(Cl)ccc2Cl)c1C(=O)O [Compound A67, 1-(2,5-dichlorobenzyl)-4-methyl-2-(quinolin-3-yl)-1H-imidazole-5-carboxylic acid]
Cc1nc(-c2cccnc2)n(Cc2ccc(Cl)c(Cl)c2)c1C(=O)O [Compound A68, 1-(3,4-dichlorobenzyl)-4-methyl-2-(pyridin-3-yl)-1H-imidazole-5-carboxylic acid]
Cc1nc(-c2cccnc2)n(Cc2cccc(Cl)c2Cl)c1C(=O)O [Compound A70, 1-(2,3-dichlorobenzyl)-4-methyl-2-(pyridin-3-yl)-1H-imidazole-5-carboxylic acid]
Cc1nc(-c2cccnc2)n(Cc2cc(F)cc(Cl)c2)c1C(=O)O [Compound A76, 1-(3-chloro-5-fluorobenzyl)-4-methyl-2-(pyridin-3-yl)-1H-imidazole-5-carboxylic acid]
Cc1nc(-c2cccnc2)n(Cc2ccc(Cl)cc2Cl)c1C(=O)O [Compound A77, 1-(2,4-dichlorobenzyl)-4-methyl-2-(pyridin-3-yl)-1H-imidazole-5-carboxylic acid]
Cc1nc(-c2cccnc2)n(Cc2cc(Cl)sc2Cl)c1C(=O)O [Compound A79, 1-((2,5-dichlorothiophen-3-yl)methyl)-4-methyl-2-(pyridin-3-yl)-1H-imidazole-5-carboxylic acid]
Cc1nc(-c2cccnc2)n(Cc2sc(Cl)cc2Cl)c1C(=O)O [Compound A80, 1-((2,4-dichlorothiophen-5-yl)methyl)-4-methyl-2-(pyridin-3-yl)-1H-imidazole-5-carboxylic acid]
O=C(O)c1c(C2CC2)nc(-c2cccnc2)n1Cc1cccc2ccsc12 [Compound A82, 1-(benzo[b]thiophen-7-ylmethyl)-4-cyclopropyl-2-(pyridin-3-yl)-1H-imidazole-5-carboxylic acid]

Inhibitory Activity (IC50 of uric acid transport inhibition), * * *:
Cc1nc(-c2cccnc2)n(Cc2cc(C(F)(F)F)ccc2Cl)c1C(=O)O [Compound A43, 1-(2-chloro-5-(trifluoromethyl)benzyl)-4-methyl-2-(pyridin-3-yl)-1H-imidazole-5-carboxylic acid]
O=C(O)c1cnc(-c2cccnc2)n1Cc1cc(Cl)ccc1Cl [Compound A45, 1-(2,5-dichlorobenzyl)-2-(pyridin-3-yl)-1H-imidazole-5-carboxylic acid]
Cc1nc(-c2cccnc2)n(Cc2cc(Cl)cc(Cl)c2)c1C(=O)O [Compound A71, 1-(3,5-dichlorobenzyl)-4-methyl-2-(pyridin-3-yl)-1H-imidazole-5-carboxylic acid]
Cc1ccc(Cl)c(Cn2c(-c3cccnc3)nc(C)c2C(=O)O)c1 [Compound A78, 1-(2-chloro-5-methylbenzyl)-4-methyl-2-(pyridin-3-yl)-1H-imidazole-5-carboxylic acid]

Same assay, conditions: HEK 293 cells expressing human URAT1; 14C-labeled uric acid 25 μM; uptake 37° C. for 5 min; read-out: Inhibitory Activity (IC50 of uric acid transport inhibition)

IC50, 2 to 20 µM:
COc1ccc(-c2nc(C)c(C(=O)O)n2Cc2cccc3ccccc23)c(OC)n1 [Compound A47]
Cc1nc(-c2cccnc2)n(Cc2ccccc2F)c1C(=O)O [Compound A48]
Cc1nc(-c2cccnc2)n(Cc2cccc(F)c2)c1C(=O)O [Compound A49]
Cc1nc(-c2cccnc2)n(Cc2ccc(F)cc2)c1C(=O)O [Compound A50]
Cc1nc(-c2cccnc2)n(Cc2ccccc2Cl)c1C(=O)O [Compound A51]
Cc1nc(-c2cccnc2)n(Cc2cccc(Cl)c2)c1C(=O)O [Compound A52]
Cc1nc(-c2cccnc2)n(Cc2ccc(Cl)cc2)c1C(=O)O [Compound A53]
Cc1nc(-c2cccnc2)n(Cc2ccc(Br)cc2)c1C(=O)O [Compound A56]
Cc1ccccc1Cn1c(-c2cccnc2)nc(C)c1C(=O)O [Compound A57]
Cc1cccc(Cn2c(-c3cccnc3)nc(C)c2C(=O)O)c1 [Compound A58]
CCc1ccccc1Cn1c(-c2cccnc2)nc(C)c1C(=O)O [Compound A59]
Cc1nc(-c2cccnc2)n(Cc2ccccc2C(F)(F)F)c1C(=O)O [Compound A60]
Cc1nc(-c2cccnc2)n(Cc2cccc(C(F)(F)F)c2)c1C(=O)O [Compound A61]
Cc1nc(-c2cccnc2)n(Cc2ccccc2OC(F)(F)F)c1C(=O)O [Compound A62]
Cc1nc(-c2cccnc2)n(Cc2cccc(OC(F)(F)F)c2)c1C(=O)O [Compound A63]
Cc1nc(-c2cccnc2)n(Cc2ccccc2C#N)c1C(=O)O [Compound A64]
Cc1nc(-c2cccnc2)n(Cc2cccc(C#N)c2)c1C(=O)O [Compound A65]
Cc1nc(-c2cnc3ccccc3c2)n(Cc2cccc3ccccc23)c1C(=O)O [Compound A66]
Cc1nc(-c2cccnc2)n(Cc2c(F)cccc2Cl)c1C(=O)O [Compound A72]
Cc1nc(-c2cccnc2)n(Cc2ccc(F)cc2Cl)c1C(=O)O [Compound A73]
Cc1nc(-c2cccnc2)n(Cc2cccc(Cl)c2F)c1C(=O)O [Compound A74]
Cc1nc(-c2cccnc2)n(Cc2ccc(F)c(Cl)c2)c1C(=O)O [Compound A75]
